Where “and” joins values, the source holds several entries; their conditions need not be identical. Identical values can stand only once. Like-named read-outs stand apart in the source and are kept apart here. Marks after values point to notes of the source that are not given here.
How the values were obtained:
[1] = literature value; cited from earlier work
[2] = Dynamic light scattering (DLS) of liposome suspensions; assay type: physicochemical; conditions: for Dia. (vesicle diameter, most abundant population) / Rel. pop. (most abundant population) / Dia. (vesicle diameter, second population) / Rel. pop. (second population): aqueous suspension; for Dia. (vesicle diameter, most abundant population): POPC with 5 mol % POPG extruded through 100 nm membrane, SiPC not extruded; for Rel. pop. (most abundant population): first population; for polydispersity: most abundant population, liposomes not extruded
Description: POPC ULVs contain 5 mol % of 1-palmitoyl-2-oleoyl-sn-3-glcyercophosphoglycerol (POPG) and were extruded through a 100 nm polycarbonate membrane. SiPC suspensions were not extruded.
(§1) SiPCs were prepared as described above in Example 1. Aqueous dispersions of SiPCs were prepared by five freeze-thaw cycles to give opaque suspensions of vesicles suitable for Small-angle X-ray scattering (SAXS) analysis. Dispersion particle size was determined by dynamic light scattering (DLS) with a Nano Zetasizer ZS90 (Malvern Instruments, Worcestershire, U.K.).
(§2) 1-Palmitoyl-2-oleoyl-sn-3-glycercophosphocholine (POPC) and 1-palmitoyl-2-oleoyl-sn-3-glcyercophosphoglycerol (POPG) were purchased from Avanti Polar Lipids (Alabaster, Ala.) and used as received. POPC and 5 mol % POPG were co-dissolved in a chloroform:methanol (3:1) mixture. POPC was doped with 5 mol % POPG, to minimize pauci-lamellar vesicle contamination. Solvent was removed under a gentle stream of dry nitrogen gas then was put under vacuum for 8 hours. POPC:POPG film was hydrated with ultrapure water to a concentration of ˜30 mg/mL. ULVs were prepared using a manual miniextruder (Avanti Polar Lipids, Alabaster, Ala.), assembled with a 100 nm pore-diameter polycarbonate filter. The lipid suspension was passed through the filter 31 times. SAXS data were collected at the P12 BioSAXS beamline at the storage ring PETRA III (synchrotron DESY, Hamburg)^26 at a temperature of 20° C. SAXS data were visualized, averaged and the background was subtracted using ATSAS^27 and modelled using the method of Pabst et al.^28 The data was fit utilizing a standard non-linear least-squares fitting (NLSF) scheme within Origin (OriginLab, USA). Vesicle size was determined by dynamic light scattering (DLS) with a Nano Zetasizer ZS90 (Malvern Instruments, Worcestershire, U.K.)
The diameter standard deviation (a) for the vesicles (most abundant population) was below 20% of the diameter for liposomes of 1,2-SiPC and 1,3-SiPC, thus implying very low polydispersities of 0.16 and 0.19 respectively.

[3] = fixed using experimentally determined volume, cited from earlier work; for ρH (fit parameter, headgroup electron density relative to water): 20° C
[4] = Small-angle X-ray scattering (SAXS) of vesicle suspensions, 3-Gaussian electron density model; assay type: physicochemical; conditions: for ρC (fit parameter, hydrocarbon chain electron density relative to water) / zH (fit parameter, position of headgroup Gaussian) / σC (fit parameter, standard deviation of hydrocarbon Gaussian) / σH (fit parameter, standard deviation of headgroup Gaussian): 20° C, POPC ULVs with 5 mol % POPG; for ρC (fit parameter, hydrocarbon chain electron density relative to water): extruded 100 nm, SiPC freeze-thaw; for ρC (fit parameter, hydrocarbon chain electron density relative to water) / SAXS curve: bilayer-bilayer structure factor (Bragg peak), lamellarity: not extruded; for zH (fit parameter, position of headgroup Gaussian) / σC (fit parameter, standard deviation of hydrocarbon Gaussian) / σH (fit parameter, standard deviation of headgroup Gaussian): extruded, SiPC not extruded; for derived lipid volume / derived lipid volume relative to the volume from the atomic covalent radii: 3-Gaussian model; for SAXS curve: bilayer-bilayer structure factor (Bragg peak), lamellarity: freeze-thaw liposomes
Description: as §1, §2
SAXS is sensitive to the presence of multilamellar vesicles (MLVs) and is used to evaluate the presence of MLVs. Shown in FIG. 2 are SAXS data for an about 40 mM POPC vesicle suspension in water as 100 nm ULV (black) and MLVs (gray). For MLVs, density correlations between the stacked bilayers give rise to a bilayer-bilayer structure factor also known as Bragg Peaks at a length scale corresponding to integer multiples of the lamellar repeat distance (e.g., the first Bragg order at q˜0.1 Å^−1, corresponding to a lamellar repeat distance of ˜63 Å).
The scattering regime where bilayer structure (as opposed to vesicle sphericity) dominates the form factor is of most interest as information about vesicle size is obtained from the DLS. The scattered intensity of a dilute vesicle suspension is given by:
The functional model chosen to describe the electron density of the siloxane phospholipids is the three Gaussian model as outlined by Pabst et al. (2000).^28 In this model, the electron distribution is the summation of the headgroups, described by a single Gaussian (in total 2, one for each leaflet of the bilayer) and a Gaussian representing the hydrocarbon chains, Eqn 2.
The position of the Gaussian peak is at zi where i=H or C and zC=0, with a standard deviation of σi. For simplicity, ρH−ρw and ρC−ρw are referred to herein as ρH and ρC respectively. The form factor of this electron density model can then be calculated analytically by applying Eqn 3: F(q)=∫ρ(z)exp(iqz)dz (3) which yields:
Only the cosine terms remain due to the centrosymmetric nature of a single component lipid bilayer. A benefit of this method is that structural parameters can be derived from simple geometric relationships, without the need of volumetric data. Typically area per lipid AL is one of the more desirable structural parameters to be extracted from the data. To begin, the transverse structure of the bilayer is derived (along the bilayer normal), such as the hydrocarbon length (dC) and the headgroup thickness (dH). Simply, dH can be estimated from the full width at half maximum (FWHM) of the Gaussian describing the headgroups. Using dH, dC can be determined as: […]

[5] = literature SDP model; cited from earlier work
[6] = Langmuir isotherms of phospholipid monolayers; assay type: physicochemical; conditions: 21.5° C
Description: The interfacial phase behaviour of lipids and phospholipids is an important area of study. Data from Langmuir isotherms can give insight into packing behaviour and collapse mechanisms of phospholipid monolayers. FIG. 1 presents the Langmuir isotherms for 1,2-SiPC, 1,3-SiPC, 1,2-dipalmitoyl-sn-3-phosphocholine (DPPC), and 1-palmitoyl-2-oleoyl-sn-3-phosphocholine (POPC). DPPC and POPC are biologically relevant lipids that are commonly used as model systems in the study of membrane topology. These two lipids differ in the degree of unsaturation with POPC containing a single unit of unsaturation in the oleic acid FA chain. […] The surface area at the collapse of 1,2-SiPC was approximately 70 Å^2 and that for 1,3-SiPC was 87 Å^2. Both of these values are larger than those observed for DPPC and POPC.
While not wishing to be bound by theory, the larger size of the siloxane tails strongly affects the mean molecular area of the lipid as well as the lipid area at monolayer collapse. Furthermore, the rotational freedom of the siloxane unit leads to behaviour similar to that for unsaturated phospholipids such as POPC.

[7] = geometrically derived from SAXS fit

| Compound | Dia. (vesicle diameter, most abundant population) [2] | Rel. pop. (most abundant population) [2] | ρH (fit parameter, headgroup electron density relative to water) [3] | VH (PC headgroup volume) [3] | ρC (fit parameter, hydrocarbon chain electron density relative to water) [4] | zH (fit parameter, position of headgroup Gaussian) [4] | σC (fit parameter, standard deviation of hydrocarbon Gaussian) [4] | σH (fit parameter, standard deviation of headgroup Gaussian) [4] | AL (area per lipid) [4, 7] | VC (hydrocarbon volume) [4, 7] | dB (bilayer thickness) [4, 7] | dC (hydrocarbon length) [4, 7] | dH (headgroup thickness) [4, 7] | dHH (headgroup-headgroup distance) [4, 7] | Dia. (vesicle diameter, second population) [2] | Rel. pop. (second population) [2] | polydispersity [2] | surface area at the collapse of the monolayer [6] | derived lipid volume [4] | derived lipid volume relative to the volume from the atomic covalent radii [4] | further results |
| --- | --- | --- | --- | --- | --- | --- | --- | --- | --- | --- | --- | --- | --- | --- | --- | --- | --- | --- | --- | --- | --- |
| CC(C)CCCC(C)CCCC(C)CCCC(C)CC(=O)OC[C@H](COP(=O)([O-])OCC[N+](C)(C)C)OC(=O)CC(C)CCCC(C)CCCC(C)CCCC(C)C (stereo partly drawn) [diPhyPC, 1,2-diphytanoyl-sn-glycero-3-phosphatidylcholine] |  |  |  |  |  |  |  |  |  |  |  |  |  |  |  |  |  |  |  |  | AL (area per lipid) [1]: 78 Å^2 |
| CCCCCCCC/C=C\CCCCCCCC(=O)O[C@H](COC(=O)CCCCCCCCCCCCCCC)COP(=O)([O-])OCC[N+](C)(C)C [POPC, 1-palmitoyl-2-oleoyl-sn-3-phosphocholine, reference compound] | 98.1 nm | 100% | 0.1609^a e/Å^3 | 331^a Å^3 | −0.152 ± 0.002 e/Å^3 | 18.16 ± 0.08 Å | 6.9 ± 0.2 Å | 3.77 ± 0.06 Å | 58.9 ± 2^ Å^2 | 961 ± 27 Å^3 | 43.7 Å and 43.7 ± 0.2 Å | 14.4 Å and 14.4 ± 0.1 Å | 7.5 ± 0.2 Å | 36.3 Å and 36.3 ± 0.1 Å |  |  |  |  |  |  | lamellar repeat distance ([4]; about 40 mM POPC MLVs in water, first Bragg order at q~0.1 Å^-1): ~63 Å; derived AL (area per lipid) [4, 7]: 58.9±2 Å; AL, SDP model derived [5]: 62.7±1 Å; dB (bilayer thickness), SDP analysis [5]: 39.8 Å; dC (hydrocarbon length), SDP analysis [5]: 14.6 Å; dHH (headgroup-headgroup distance), SDP analysis [5]: 37.4 Å |
| C[N+](C)(C)CCOP(=O)([O-])OCC(COC(=O)CCCCCCCCC[Si](C)(C)O[Si](C)(C)O[Si](C)(C)C)OC(=O)CCCCCCCCC[Si](C)(C)O[Si](C)(C)O[Si](C)(C)C (racemic) [1,2-SiPC] | 193.7 nm | 79% | 0.1609^a e/Å^3 | 331^a Å^3 | −0.106 ± 0.002 e/Å^3 | 18.2 ± 0.05 Å | 14.1 ± 0.2 Å | 4.6 ± 0.1 Å | 69 ± 2 Å^2 | 1243 ± 42 Å^3 | 45.5 ± 0.3 Å | 9.9 ± 0.5 Å | 9.1 ± 0.3 Å | 36.3 ± 0.1 Å | 949.8 nm | 21% | 0.16 | approximately 70 Å^2 | 1574 Å^3 | 7 factor | SAXS curve: bilayer-bilayer structure factor (Bragg peak), lamellarity [4]: without the presence of a bilayer-bilayer structure factor (Bragg Peak) |
| C[N+](C)(C)CCOP(=O)([O-])OC(COC(=O)CCCCCCCCC[Si](C)(C)O[Si](C)(C)O[Si](C)(C)C)COC(=O)CCCCCCCCC[Si](C)(C)O[Si](C)(C)O[Si](C)(C)C [1,3-SiPC] | 123.4 nm | 89% | 0.1609^a e/Å^3 | 331^a Å^3 | −0.101 ± 0.003 e/Å^3 | 17.6 ± 0.1 Å | 13.3 ± 0.3 Å | 4.3 ± 0.2 Å | 72 ± 4 Å^2 | 1246 ± 81 Å^3 | 43.9 ± 0.4 Å | 13.2 ± 0.2 Å | 8.6 ± 0.5 Å | 35.3 ± 0.1 Å | 684.9 nm | 11% | 0.19 | 87 Å^2 | 1577 Å^3 | 7 factor | SAXS curve: bilayer-bilayer structure factor (Bragg peak), lamellarity [4]: without the presence of a bilayer-bilayer structure factor (Bragg Peak) |

From US10294253B2, “Siloxane-containing phospholipids, compositions and uses thereof” (priority 2016, dated 2019)
